Columns and labels:
CCXCKR2 (CXCR7) = molecular target: T1, CCXCKR2 (CXCR7) (Homo sapiens, UniProt P25106); test: Displacement of 125I SDF-1 from CCXCKR2 (CXCR7) on MCF-7 and/or MDA-MB-435S cells; type: binding; settings: second activity CXCR4/CXCR7
T1 construct: expressed in transfected cells; host or cells: MDA-MB-435S transfected with pcDNA3.1(+)-hRDC1 (G418 selected) and/or MCF-7 (endogenous receptor)
Experimental: The ability of the compounds to displace the labeled chemokine from the CCXCKR2 receptor sites at multiple concentrations was then determined with the screening process.
Reagents and Cells. […] SDF-1 was purchased from Perkin-Elmer Life Sciences, Inc. (Boston, Mass.). The MCF-7 (adenocarcinoma; mammary gland) cell line was obtained from the American Type Culture Collection (Manassas, Va.) or and was cultured in DMEM (Mediatech, Herudon, Va.) supplemented with 10% fetal bovine serum (FBS) (HyClone Logan, Utah) and bovine insulin (0.01 mg/mL) (Sigma, St. Louis, Mo.) at 37° C. in a humidified incubator at a 5% CO2/air mixture. CCXCKR2 transfected MDA-MB-435S were produced as described below. MDA-MB-435S human breast cancer line, was purchased from ATCC, and cultured in DMEM/10% FBS medium. The complete coding sequence of the gene encoding CCXCKR2 (a.k.a.CXCR7, hRDC1), was isolated from MCF-7 cells using μMACs mRNA isolation kit (Miltenyi Biotec, Auburn, Calif.). DNA contamination was removed by DNase digestion via RNeasy columns (Qiagen, Inc., Valencia, Calif.) and cDNA was generated using GeneAmp RNA PCR Core Kit (Applied Biosystems, Foster City, Clif.). PCR of cDNA samples was performed using Taq PCR Master Mix kit (Qiagen, Inc.) and hRDC1 primers harboring 5′ and 3′ Not I sites (hRDC1F 5′ […]-3′ (SEO ID NO:11), hRDC1R 5′-[…]-3′ (SEO ID NO: 12)) Not I digested PCR product was ligated into Not I digested pcDNA3.1 (+)(Invitrogen, Carlsbad, Calif.) and screened for orientation and sequence confirmed. Plasmid DNA was then isolated from overnight bacterial cultures by Maxiprep (Qiagen, Inc.). Plasmid DNA (10μg) was added to MDA-MB-435s cells and cells were electroporated (0.22 kV, 960uF) via Gene Pulser (Biorad laboratories, Hercules, Calif.). 48 hr post-electroporation, cells were transferred to selection medium (1000 ug/ml G418).
Binding Analysis. Target compounds were tested to determine their ability to bind with CCXCKR2 sites on MCF-7 and/or MDA-MB-435S cells. Efficiency-maximized radioligand binding using filtration protocols as described in Dairaghi D J, et al., HHV8-encoded vMIP-I selectively engages chemokine receptor CCR5. Agonist and antagonist profiles of viral chemokines, J. Biol. Chem. Jul. 30, 1999; 274(31): 21569-74 and Gosling J, et al., Cutting edge: identification of a novel chemokine receptor that binds dendritic cell-i and T cell-active chemokines including ELC, SLC, and TECK., J. Immunol. Mar. 15, 2000; 164(6):2851-6 was used.
In these assays, MCF-7 and/or MDA-MB-435S cells were interrogated with the target compounds and the ability of these compounds to displace ^125I radiolabeled SDF-1 was assessed using the protocol described in Dairaghi and Gosling. The target compounds were added to the plate to the indicated concentration and were then incubated with cells followed by the addition of radiolabeled chemokine (^125I SDF-1) for 3 hr at 4° C. in the following binding medium (25 mM HEPES, 140 mM NaCl, 1 mM CaCl2, 5 mM MgCl2 and 0.2% bovine serum albumin, adjusted to pH 7.1). All assays were then incubated for 3 hrs at 4° C. with gentle agitation. Following incubation in all binding assays, reactions were aspirated onto PEI-treated GF/B glass filters (Packard) using a cell harvester (Packard) and washed twice (25 mM HEPES, 500 mM NaCl, 1 mM CaCl2, 5 mM MgCl2, adjusted to pH 7.1). Scintillant (MicroScint 10, Packard) was added to the wells, and the filters were counted in a Packard Topcount scintillation counter. Data were analyzed and plotted using Prism (GraphPad Prism version 3.0a for Macintosh, GraphPad Software, www.graphpad.com).

CXCR4 = molecular target: T2, CXCR4 (Homo sapiens, UniProt P61073); test: Inhibition of SDF-1 ligand binding or chemotaxis assay for CXCR4; settings: first (or only) activity listed in CXCR4/CXCR7; chemotaxis assay or binding assays
T2 construct: endogenous in cells; host or cells: CEM-Nkr, CCRF-CEM (ATCC #CCL-119), Jurkat (ATCC #TIB-152), Molt-4 (ATCC# CRL-1582); IL-2 stimulated lymphocytes from human blood
T2 sequence (P61073 whole entry): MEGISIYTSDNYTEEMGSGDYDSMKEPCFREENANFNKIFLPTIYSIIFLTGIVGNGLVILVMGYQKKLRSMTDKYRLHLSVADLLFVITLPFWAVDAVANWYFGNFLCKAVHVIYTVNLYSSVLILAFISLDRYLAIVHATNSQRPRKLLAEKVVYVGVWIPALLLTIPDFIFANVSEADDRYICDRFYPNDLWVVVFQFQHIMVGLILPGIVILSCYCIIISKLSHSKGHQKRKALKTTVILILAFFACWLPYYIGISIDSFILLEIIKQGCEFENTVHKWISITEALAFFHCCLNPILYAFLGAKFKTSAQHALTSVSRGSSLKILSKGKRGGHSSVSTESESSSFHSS
Experimental: CEM-Nkr, CCRF-CEM (ATCC #CCL-119), Jurkat (ATCC #TIB-152), Molt-4 (ATCC# CRL-1 582), cell lines, all endogenously expressing CXCR4, were used in compound screening and subsequent assays. These cell lines were cultured as a suspension in RPMI-1640 medium supplemented with 2 mM L-glutamine, 1.5 g/L sodium bicarbonate, 4.5 g/L glucose, 10 mM HEPES, 1 mM sodium pyruvate, and 10% FBS. Cells were grown under 5% CO2/95% air, 100% humidity at 37° C. and subcultured twice weekly at 1:6 (cells were cultured at a density range of 1×10^5 to 2×10^6 cells/mL) and harvested at 1×10^6 cells/mL.
Il-2 stimulated lymphocytes were isolated from fresh human blood using density separation and centrifigation. Briefly, whole blood is incubated with equal parts 3% dextran and allowed to separate for 45 minutes. After separation, the top layer is then layered on top of 15 mls of Ficoll (15 mls of Ficoll for every 30 mls of blood suspension) and centrifuged for 30 minutes at 400×g with no brake. The pellet at the bottom of the tube is then isolated and resuspended into PharmLyse RBC Lysis Buffer (BD Biosciences, San Jose, Calif.) after which the sample is again centrifuged for 10 minutes at 400×g with brake. The remaining cell pellet is resuspended as appropriate and stimulated with PHA for 2 days, followed by culturing in the presence of human IL-2 cytokine.
Cells were centrifuged and resuspended in assay buffer (20 mM HEPES pH 7.1, 140 mM NaCl, 1 mM CaCl2, 5 mM MgCl2, and with 0.2% bovine serum albumin) to a concentration of 4×10^6 cells/mL for cell lines. Binding assays were set up as follows. 0.15 mL of cells (6×10^5 cells/well) was added to the assay plates containing the compounds, giving a final concentration of ˜2-10 μM each compound for screening (or part of a dose response for compound IC50 determinations). Then 0.1 mL of ^125I labeled SDF-1α (obtained from Perkin Elmer Life Sciences, Boston, Mass.) diluted in assay buffer to a final concentration of ˜[…], yielding ˜30,000 cpm per well, was added, the plates sealed and incubated for approximately 3 hours at 4° C. on a shaker platform. Reactions were aspirated onto GF/B glass filters pre-soaked in 0.3% polyethyleneimine (PEI) solution, on a vacuum cell harvester (Packard Instruments; Meriden, Conn.). Scintillation fluid (40 μl; Microscint 20, Packard Instruments) was added to each well, the plates were sealed and radioactivity measured in a Topcount scintillation counter (Packard Instruments). Control wells containing either diluent only (for total counts) or excess SDF1a (1 μg/mL, for non-specific binding) were used to calculate the percent of total inhibition for compound. The computer program Prism from Graph Pad, Inc. (San Diego, Calif.) was used to calculate IC50 values. IC50 values are those concentrations required to reduce the binding of radiolabeled SDF-1α to the receptor by 50%. (For further descriptions of ligand binding and other functional assays, see Dairaghi, et al., J. Biol. Chem. 274:21569-21574 (1999), Penfold, et al., Proc. Natl. Acad. Sci. USA. 96:9839-9844 (1999), and Dairaghi, et al,. J. Biol. Chem. 272:28206-28209 (1997)).
Chemotaxis assays were performed using 5 μm pore polycarbonate, polyvinylpyrrolidone-coated filters in 96-well chemotaxis chambers (Neuroprobe; Gaithersburg, Md.) using chemotaxis buffer (Hank's balanced salt solution (HBSS) and 1% FBS). CXCR4 ligand (i.e., SDF1a, R&D Systems; Minneapolis, Minn.) are use to evaluate compound mediated inhibition of CXCR4 mediated migration. Other chemokines (i.e., TECK; R&D Systems; Minneapolis, Minn.) are used as specificity controls. The lower chamber was loaded with 29 μl of chemokine (i.e., 0.1 nM SDF1a); the top chamber contained 50,000 Jurkat cells or IL-2 lymphocytes in 20 μl. […]

T1 sequence (P25106 whole entry): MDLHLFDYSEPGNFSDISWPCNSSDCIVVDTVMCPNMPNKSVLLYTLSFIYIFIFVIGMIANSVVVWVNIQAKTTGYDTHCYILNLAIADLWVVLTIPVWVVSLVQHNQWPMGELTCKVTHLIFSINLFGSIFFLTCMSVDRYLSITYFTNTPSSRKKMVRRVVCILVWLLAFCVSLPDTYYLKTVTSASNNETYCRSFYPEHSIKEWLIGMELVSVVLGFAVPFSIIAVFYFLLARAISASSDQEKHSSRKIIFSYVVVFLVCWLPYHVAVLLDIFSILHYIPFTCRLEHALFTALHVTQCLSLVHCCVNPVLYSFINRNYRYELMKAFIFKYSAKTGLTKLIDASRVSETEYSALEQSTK

| IC50 (CCXCKR2 (CXCR7)) | IC50 (CXCR4) | SMILES |
| --- | --- | --- |
| < 1 µM | < 1 µM | COc1ccc2oc(=O)c3cnn(CC(=O)NCCN(C)C4CCCCC4)c3c2c1 [Compound 24] |
| < 1 µM | 1 to 10 µM | COc1ccc2c(c1)c1c(cnn1CC(=O)NCCN(C)C1CCCCC1)c(=O)n2C [Compound 30] |
| < 1 µM | > 10 µM | COc1ccc2c(c1)c1c(cnn1CC(=O)NCCNC1CCCCC1)c(=O)n2C [Compound 31] |
| < 1 µM | 1 to 10 µM | COc1ccc2c(c1)c1c(cnn1CC(=O)NCCN(C)C1CCCCCCC1)c(=O)n2C [Compound 32] |

Further lines, the molecule ahead of its results:

| SMILES | IC50 (CCXCKR2 (CXCR7)) | IC50 (CXCR4) |
| --- | --- | --- |
| Cc1ccc2oc(=O)c3cnn(CC(=O)NCCN(C)C4CCCCC4)c3c2c1 [Compound 1] | < 1 µM | 1 to 10 µM |
| Cc1ccc2c(c1)-c1c(cnn1CC(=O)NCCN(C)C1CCCCC1)CO2 [Compound 2] | < 1 µM | 1 to 10 µM |
| COc1ccc2c(c1)c1c(cnn1CC(=O)NCCN1CCCC3CCCCC31)c(=O)n2C (centres unmarked) [Compound 13] | < 1 µM | < 1 µM |

From patent US7671069B2, “Tricyclic, heteroaromatic compounds modulating CXCR4 and/ or CXCR7” (ChemoCentryx, Inc., priority 2006, dated 2010)
